Read-outs that look alike come from different tables or passages of the source.
How the values were obtained:
Type in all cases: cell-based
[1] = test system: P. aeruginosa ATCC 27853 (wild-type/QC strain); experiment: broth microdilution MIC assay, P. aeruginosa ATCC 27853; conditions: Pseudomonas aeruginosa
Procedure: (§1) To determine the ability of test compounds to potentiate the inhibition of the growth of bacterial strains, classic cell-based broth microdilution MIC assays were employed. MIC assays are performed according to CLSI methods except where otherwise noted (CLSI, 2011 and CLSI, 2009). The reference strains S. aureus ATCC 29213 (methicillin sensitive), S. aureus ATCC 33591 (methicillin-resistant), E. coli ATCC 25922 (wild-type/QC strain), P. aeruginosa ATCC 27853 (wild-type/QC strain), and the clinical isolate P. aeruginosa PA 8 were used to determine the ability of the exemplary carbapenem compounds to inhibit bacterial growth. An expanded panel of methicillin resistance S. aureus (MRSA) and Pseudomonas was also used to determine the ability of exemplary carbapenem compounds to inhibit bacterial growth across a broader representation of those species. To determine activity in MRSA and in addition to S. aureus ATCC 33591, S. aureus USA 300, USA 400 and USA 600, some of the most common clones found to cause human infection, were also used. To further gauge the impact on the carbapenem compounds due to various resistance mechanisms in Pseudomonas, the following strains were included: P. aeruginosa 35151 (hyper-permeable strain), P. aeruginosa AmexAB-OprM (an efflux pump knockout), and P. aeruginosa PA 3 (a clinical isolate of reduced carbapenem susceptibility). Briefly, cryo-preserved bacterial cultures of clinical strains are streaked for isolation on appropriate agar medium, in this case Mueller Hinton II agar. Following incubation to allow formation of colonies, these plates are sealed with parafilm and stored refrigerated for up to two weeks. For preparation of assay inocula and to ensure low variability, at least 5 colonies are picked from the agar plates with an inoculating loop and aseptically transferred to a culture tube containing 3 mL of Mueller-Hinton Broth (supplemented with divalent cations to required levels based on Manufacturers' specification). The broth culture is grown for 3-5 hours at 37° C. with shaking at 200 rpm. Meanwhile, 2-fold serial dilutions of test compounds are conducted in a 96 well plate with a final volume of 75 μL per well at 2-fold the final desired concentration. After the dilution plates are set up the growing cultures are then diluted in a cuvette containing MH II broth and the optical density is measured at 600 nm. Inocula are diluted such that 75 μL of this culture in Mueller-Hinton Broth results in a starting bacterial concentration of 5×10^5 CFU/mL when added to the dilution plates. The plates are incubated 16-20 hours at 37° C. The MIC is read visually as the lowest concentration well with no bacterial growth.
(§2) Representative results are shown in Tables 3, 4, and 5 where A represents an MIC>32 μg/mL, B represents an MIC between 8 and 32 μg/mL inclusive, C represents an MIC between 1 and 4 μg/mL inclusive, and D represents an MIC of <1 μg/mL. NT=Not Tested.

[2] = test system: clinical isolate P. aeruginosa PA 8; experiment: broth microdilution MIC assay, P. aeruginosa PA 8; conditions: Pseudomonas aeruginosa; Table 3; P. aeruginosa PA8
Procedure: as §1, §2

[3] = test system: E. coli ATCC 25922 (wild-type/QC strain); experiment: broth microdilution MIC assay, E. coli ATCC 25922; conditions: Escherichia coli
Procedure: as §1, §2

[4] = test system: S. aureus ATCC 33591 (methicillin-resistant); experiment: broth microdilution MIC assay, S. aureus ATCC 33591; conditions: Staphylococcus aureus
Procedure: as §1, §2

[5] = test system: P. aeruginosa ΔmexAB-OprM (an efflux pump knockout); experiment: broth microdilution MIC assay, P. aeruginosa ΔmexAB-OprM; conditions: Pseudomonas aeruginosa, 20 h, read-out: P. aeruginosa ΔmexAB-OprM MIC
Procedure: as §1, §2

[6] = test system: P. aeruginosa 35151 (hyper-permeable strain); experiment: broth microdilution MIC assay, P. aeruginosa 35151; conditions: Pseudomonas aeruginosa, read-out: P. aeruginosa 35151 MIC
Procedure: as §1, §2

S. aureus USA 300 = experiment: broth microdilution MIC assay, S. aureus USA 300; conditions: Staphylococcus aureus
Procedure: as §1, §2

S. aureus USA600 = experiment: broth microdilution MIC assay, S. aureus USA 600; conditions: Staphylococcus aureus
Procedure: as §1, §2

[7] = ATCC27853, Table 5, P. aeruginosa 27853, read-out: P. aeruginosa 27853 MIC
[8] = Table 4, S. aureus USA300, read-out: S. aureus USA300 MIC
[9] = ATCC25922, Table 4, E. coli 25922, read-out: E. coli 25922 MIC
[10] = ATCC33591, Table 4, S. aureus 33591, read-out: S. aureus 33591 MIC
[11] = Table 4, S. aureus USA600, read-out: S. aureus USA600 MIC

SMILES	MIC ([1]; ATCC27853, Table 3, P. aeruginosa 27853, read-out: P. aeruginosa 27853 MIC)	MIC [2]	MIC ([3]; ATCC25922, Table 3, E. coli 25922, read-out: E. coli 25922 MIC)	MIC ([4]; ATCC 33591 / MRSA, Table 3, S. aureus 33591 (MRSA), read-out: S. aureus 33591 (MRSA) MIC)	MIC [1, 7]	MIC [5]	MIC [6]	MIC (S. aureus USA 300; [8])	MIC [3, 9]	MIC [4, 10]	MIC (S. aureus USA600; [11])	MIC ([1]; ATCC27853, read-out: P. aeruginosa 27853 MIC)	MIC (S. aureus USA 300; USA300, read-out: S. aureus USA300 MIC)	MIC ([3]; ATCC25922, read-out: E. coli 25922 MIC)	MIC ([4]; ATCC33591, read-out: S. aureus 33591 MIC)	MIC (S. aureus USA600; USA600, read-out: S. aureus USA600 MIC)
C[C@@H](O)[C@H]1C(=O)N2C(C(=O)O)=C(S[C@@H]3CCN(Cc4ccc(C(N)CN)cc4)C3)[C@H](C)[C@H]12 (stereo partly drawn) [Example 34, (4R,5S,6S)-3-(((3R)-1-(4-(1,2-diaminoethyl)benzyl)pyrrolidin-3-yl)thio)-6-((R)-1-hydroxyethyl)-4-methyl-7-oxo-1-azabicyclo[3.2.0]hept-2-ene-2-carboxylic acid]	8 to 32 µg/mL	8 to 32 µg/mL	< 1 µg/mL	1 to 4 µg/mL												
C[C@@H](O)[C@H]1C(=O)N2C(C(=O)O)=C(S[C@@H]3CCN(CC4CCN(C)CC4)C3)[C@H](C)[C@H]12 [Example 39, (4R,5S,6S)-6-((R)-1-hydroxyethyl)-4-methyl-3-(((R)-1-((1-methylpiperidin-4-yl)methyl)pyrrolidin-3-yl)thio)-7-oxo-1-azabicyclo[3.2.0]hept-2-ene-2-carboxylic acid]					1 to 4 µg/mL	1 to 4 µg/mL	< 1 µg/mL	1 to 4 µg/mL	< 1 µg/mL	1 to 4 µg/mL	1 to 4 µg/mL					
C[C@@H](O)[C@H]1C(=O)N2C(C(=O)O)=C(S[C@@H]3CCN(CC4CCN(CCO)CC4)C3)[C@H](C)[C@H]12 [Example 40, (4R,5S,6S)-6-((R)-1-hydroxyethyl)-3-(((R)-1-((1-(2-hydroxyethyl)piperidin-4-yl)methyl)pyrrolidin-3-yl)thio)-4-methyl-7-oxo-1-azabicyclo[3.2.0]hept-2-ene-2-carboxylic acid]					1 to 4 µg/mL	1 to 4 µg/mL	< 1 µg/mL	1 to 4 µg/mL	< 1 µg/mL	8 to 32 µg/mL	1 to 4 µg/mL					
C[C@@H](O)[C@H]1C(=O)N2C(C(=O)O)=C(S[C@@H]3CCN(CC4CCN(CC(N)=O)CC4)C3)[C@H](C)[C@H]12 [Example 41, (4R,5S,6S)-3-(((R)-1-((1-(2-amino-2-oxoethyl)piperidin-4-yl)methyl)pyrrolidin-3-yl)thio)-6-((R)-1-hydroxyethyl)-4-methyl-7-oxo-1-azabicyclo[3.2.0]hept-2-ene-2-carboxylic acid]					8 to 32 µg/mL	1 to 4 µg/mL	< 1 µg/mL	1 to 4 µg/mL	< 1 µg/mL	8 to 32 µg/mL	1 to 4 µg/mL					
C[C@@H](O)[C@H]1C(=O)N2C(C(=O)O)=C(S[C@@H]3CCN(CC4CCNCC4F)C3)[C@H](C)[C@H]12 (stereo partly drawn) [Example 45, (4R,5S,6S)-3-(((3R)-1-((3-fluoropiperidin-4-yl)methyl)pyrrolidin-3-yl)thio)-6-((R)-1-hydroxyethyl)-4-methyl-7-oxo-1-azabicyclo[3.2.0]hept-2-ene-2-carboxylic acid]						1 to 4 µg/mL	< 1 µg/mL					1 to 4 µg/mL	1 to 4 µg/mL	< 1 µg/mL	1 to 4 µg/mL	1 to 4 µg/mL
C[C@@H](O)[C@H]1C(=O)N2C(C(=O)O)=C(S[C@@H]3CCN(CC4CCNCC4(F)F)C3)[C@H](C)[C@H]12 (stereo partly drawn) [Example 46, (4R,5S,6S)-3-(((3R)-1-((3,3-difluoropiperidin-4-yl)methyl)pyrrolidin-3-yl)thio)-6-((R)-1-hydroxyethyl)-4-methyl-7-oxo-1-azabicyclo[3.2.0]hept-2-ene-2-carboxylic acid]					8 to 32 µg/mL	1 to 4 µg/mL	< 1 µg/mL	1 to 4 µg/mL	< 1 µg/mL	8 to 32 µg/mL	1 to 4 µg/mL					
C[C@@H](O)[C@H]1C(=O)N2C(C(=O)O)=C(S[C@@H]3CCN(CC4CCN(C(=O)CN)CC4)C3)[C@H](C)[C@H]12 [Example 47, (4R,5S,6S)-3-(((R)-1-((1-glycylpiperidin-4-yl)methyl)pyrrolidin-3-yl)thio)-6-((R)-1-hydroxyethyl)-4-methyl-7-oxo-1-azabicyclo[3.2.0]hept-2-ene-2-carboxylic acid]					1 to 4 µg/mL	1 to 4 µg/mL	< 1 µg/mL	1 to 4 µg/mL	< 1 µg/mL	8 to 32 µg/mL	1 to 4 µg/mL					
CNCC(=O)N1CCC(CN2CC[C@@H](SC3=C(C(=O)O)N4C(=O)[C@H]([C@@H](C)O)[C@H]4[C@H]3C)C2)CC1 [Example 48, (4R,5S,6S)-6-((R)-1-hydroxyethyl)-4-methyl-3-(((R)-1-((1-(methylglycyl)piperidin-4-yl)methyl)pyrrolidin-3-yl)thio)-7-oxo-1-azabicyclo[3.2.0]hept-2-ene-2-carboxylic acid]					1 to 4 µg/mL	1 to 4 µg/mL	< 1 µg/mL	1 to 4 µg/mL	< 1 µg/mL	8 to 32 µg/mL	1 to 4 µg/mL					
C[C@@H](O)[C@H]1C(=O)N2C(C(=O)O)=C(S[C@@H]3CCN(C[C@H]4CCN(C(=N)N)C4)C3)[C@H](C)[C@H]12 [Example 52, (4R,5S,6S)-3-(((R)-1-(((R)-1-carbamimidoylpyrrolidin-3-yl)methyl)pyrrolidin-3-yl)thio)-6-((R)-1-hydroxyethyl)-4-methyl-7-oxo-1-azabicyclo[3.2.0]hept-2-ene-2-carboxylic acid]					1 to 4 µg/mL	< 1 µg/mL	< 1 µg/mL	< 1 µg/mL	< 1 µg/mL	1 to 4 µg/mL	< 1 µg/mL					
C[C@@H](O)[C@H]1C(=O)N2C(C(=O)O)=C(S[C@@H]3CCN(C[C@@H]4CCN(C(=N)N)C4)C3)[C@H](C)[C@H]12 [Example 54, (4R,5S,6S)-3-(((R)-1-(((S)-1-carbamimidoylpyrrolidin-3-yl)methyl)pyrrolidin-3-yl)thio)-6-((R)-1-hydroxyethyl)-4-methyl-7-oxo-1-azabicyclo[3.2.0]hept-2-ene-2-carboxylic acid]					1 to 4 µg/mL	< 1 µg/mL	< 1 µg/mL	< 1 µg/mL	< 1 µg/mL	1 to 4 µg/mL	1 to 4 µg/mL					
C[C@@H](O)[C@H]1C(=O)N2C(C(=O)O)=C(SC3CN(C4CCNCC4)C3)[C@H](C)[C@H]12 [Example 55, (4R,5S,6S)-6-((R)-1-hydroxyethyl)-4-methyl-7-oxo-3-((1-(piperidin-4-yl)azetidin-3-yl)thio)-1-azabicyclo[3.2.0]hept-2-ene-2-carboxylic acid]					1 to 4 µg/mL	1 to 4 µg/mL	< 1 µg/mL	1 to 4 µg/mL	< 1 µg/mL	1 to 4 µg/mL	< 1 µg/mL					
C[C@@H](O)[C@H]1C(=O)N2C(C(=O)O)=C(SC3CN(CCC4CCNCC4)C3)[C@H](C)[C@H]12 [Example 56, (4R,5S,6S)-6-((R)-1-hydroxyethyl)-4-methyl-7-oxo-3-((1-(2-(piperidin-4-yl)ethyl)azetidin-3-yl)thio)-1-azabicyclo[3.2.0]hept-2-ene-2-carboxylic acid]					1 to 4 µg/mL	1 to 4 µg/mL	< 1 µg/mL	1 to 4 µg/mL	< 1 µg/mL	1 to 4 µg/mL	1 to 4 µg/mL					

From patent US12084445B2, “Broad-spectrum carbapenems” (VenatoRx Pharmaceuticals, Inc., priority 2018, dated 2024)
